Measurements: patent US10239869B2, “Sulfonamide compounds as voltage-gated sodium channel modulators” (LUPIN LIMITED, priority 2015, dated 2019)

Molecular target: Nav 1.5 (Homo sapiens (Human), UniProt Q14524)
Experiment: Inhibition of sodium channels, Red Membrane Potential Dye FLIPR assay, veratridine depolarization
Format: cell-based
Conditions: HEK-293 cells overexpressing the channel; for IC50: read-out: Nav1.5 IC50 (bound given in μM)

Chain of Nav 1.5 (Q14524 whole entry): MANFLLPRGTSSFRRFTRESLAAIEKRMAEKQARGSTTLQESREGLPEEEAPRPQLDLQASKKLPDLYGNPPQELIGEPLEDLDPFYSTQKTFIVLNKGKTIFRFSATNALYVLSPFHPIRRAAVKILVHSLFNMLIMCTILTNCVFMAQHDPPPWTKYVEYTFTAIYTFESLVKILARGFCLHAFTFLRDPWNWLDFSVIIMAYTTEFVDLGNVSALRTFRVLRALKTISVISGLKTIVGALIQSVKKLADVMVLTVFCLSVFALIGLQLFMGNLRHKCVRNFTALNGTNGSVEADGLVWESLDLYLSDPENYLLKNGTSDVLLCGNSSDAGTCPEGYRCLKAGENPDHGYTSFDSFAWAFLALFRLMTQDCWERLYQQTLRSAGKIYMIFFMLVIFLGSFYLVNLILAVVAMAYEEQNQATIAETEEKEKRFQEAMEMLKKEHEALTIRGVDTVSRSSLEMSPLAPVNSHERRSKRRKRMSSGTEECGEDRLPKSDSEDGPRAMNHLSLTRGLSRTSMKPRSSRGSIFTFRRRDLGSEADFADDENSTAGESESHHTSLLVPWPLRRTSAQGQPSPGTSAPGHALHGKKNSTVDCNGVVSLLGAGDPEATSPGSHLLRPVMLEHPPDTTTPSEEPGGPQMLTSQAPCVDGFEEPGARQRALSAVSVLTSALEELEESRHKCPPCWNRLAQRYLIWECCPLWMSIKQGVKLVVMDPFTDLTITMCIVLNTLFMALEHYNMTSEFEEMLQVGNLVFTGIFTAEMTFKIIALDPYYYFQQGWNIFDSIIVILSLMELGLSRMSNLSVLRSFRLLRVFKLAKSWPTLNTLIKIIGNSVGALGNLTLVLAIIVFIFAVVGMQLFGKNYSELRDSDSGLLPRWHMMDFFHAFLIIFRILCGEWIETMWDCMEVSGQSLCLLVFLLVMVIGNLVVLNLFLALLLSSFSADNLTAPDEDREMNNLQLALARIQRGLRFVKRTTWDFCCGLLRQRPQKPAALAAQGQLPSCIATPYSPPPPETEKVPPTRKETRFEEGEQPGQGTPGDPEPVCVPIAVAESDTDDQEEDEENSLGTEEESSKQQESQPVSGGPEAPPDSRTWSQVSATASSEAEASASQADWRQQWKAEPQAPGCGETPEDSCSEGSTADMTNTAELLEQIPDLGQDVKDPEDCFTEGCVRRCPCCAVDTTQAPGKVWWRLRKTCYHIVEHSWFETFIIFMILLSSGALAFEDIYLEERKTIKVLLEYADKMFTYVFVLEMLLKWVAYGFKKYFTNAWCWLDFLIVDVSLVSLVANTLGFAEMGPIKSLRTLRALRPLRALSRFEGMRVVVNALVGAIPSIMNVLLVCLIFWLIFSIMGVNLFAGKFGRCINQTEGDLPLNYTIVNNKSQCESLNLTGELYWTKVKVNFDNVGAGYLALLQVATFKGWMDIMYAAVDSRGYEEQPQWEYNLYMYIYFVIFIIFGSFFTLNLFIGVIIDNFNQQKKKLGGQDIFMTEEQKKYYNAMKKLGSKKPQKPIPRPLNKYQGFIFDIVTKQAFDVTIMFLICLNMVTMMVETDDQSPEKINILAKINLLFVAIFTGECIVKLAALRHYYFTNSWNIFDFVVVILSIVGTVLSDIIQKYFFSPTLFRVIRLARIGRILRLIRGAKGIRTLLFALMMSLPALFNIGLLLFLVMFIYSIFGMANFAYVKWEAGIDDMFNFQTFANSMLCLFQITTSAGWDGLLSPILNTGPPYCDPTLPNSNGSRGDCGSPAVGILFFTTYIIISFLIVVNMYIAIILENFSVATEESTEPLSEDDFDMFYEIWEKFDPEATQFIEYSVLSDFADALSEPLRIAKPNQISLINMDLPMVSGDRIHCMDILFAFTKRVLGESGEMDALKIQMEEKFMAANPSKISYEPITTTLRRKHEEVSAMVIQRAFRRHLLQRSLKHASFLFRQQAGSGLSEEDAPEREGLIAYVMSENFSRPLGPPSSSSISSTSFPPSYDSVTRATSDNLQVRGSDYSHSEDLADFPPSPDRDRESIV

| Compound | IC50 [µM] | Nav1.5 % inhibition @ 10 μM [%] |
| --- | --- | --- |
| O=S1(=O)CCN(c2cc(C(F)(F)F)ccc2[C@H]2CCOc3cc(S(=O)(=O)Nc4ncc(F)cn4)ccc32)CC1 (racemic) [Example-234, (R/S)-4-(2-(1,1-dioxidothiomorpholino)-4-(trifluoromethyl)phenyl)-N-(5-fluoropyrimidin-2-yl)chroman-7-sulfonamide] | > 10 | – |
| O=S1(=O)CCN(c2cc(C(F)(F)F)ccc2[C@H]2CCOc3cc(S(=O)(=O)Nc4cccc(F)n4)ccc32)CC1 (racemic) [Example-235, (R/S)-4-(2-(1,1-dioxidothiomorpholino)-4-(trifluoromethyl)phenyl)-N-(6-fluoropyridin-2-yl)chroman-7-sulfonamide] | > 10 | – |
| O=S1(=O)CCN(c2cc(C(F)(F)F)ccc2[C@H]2CCOc3cc(S(=O)(=O)Nc4ccncn4)ccc32)CC1 (racemic) [Example-237, (R/S)-4-(2-(1,1-dioxidothiomorpholino)-4-(trifluoromethyl)phenyl)-N-(pyrimidin-4-yl)chromane-7-sulfonamide] | > 10 | – |
| Cn1nccc1-c1cc(C(F)(F)F)ccc1[C@@H]1CCOc2cc(S(=O)(=O)Nc3cc(F)ccn3)ccc21 [Example 3, (S&R)—N-(4-Fluoropyridin-2-yl)-4-(2-(1-methyl-1H-pyrazol-5-yl)-4-(trifluoromethyl)phenyl)chroman-7-sulfonamide] | > 10 | – |
| Cn1nccc1-c1cc(C(F)(F)F)ccc1[C@H]1CCOc2cc(S(=O)(=O)Nc3cc(F)ccn3)ccc21 [Example 4, (S&R)—N-(4-Fluoropyridin-2-yl)-4-(2-(1-methyl-1H-pyrazol-5-yl)-4-(trifluoromethyl)phenyl)chroman-7-sulfonamide] | – | 57 |
| Cn1nccc1-c1cc(C(F)(F)F)ccc1[C@@H]1CCOc2cc(S(=O)(=O)Nc3ccc(F)cn3)ccc21 [Example 5, (S&R)—N-(5-Fluoropyridin-2-yl)-4-(2-(1-methyl-1H-pyrazol-5-yl)-4-(trifluoromethyl)phenyl)chroman-7-sulfonamide] | – | 58 |
| Cn1nccc1-c1cc(C(F)(F)F)ccc1[C@@H]1CCOc2cc(S(=O)(=O)Nc3ccncn3)ccc21 [Example 9, (S&R)-4-(2-(1-Methyl-1H-pyrazol-5-yl)-4-(trifluoromethyl)phenyl)-N-(pyrimidin-4-yl) chroman-7-sulfonamide] | > 10 | – |
| Cn1nccc1-c1cc(C(F)(F)F)ccc1[C@H]1CCOc2cc(S(=O)(=O)Nc3ccncn3)ccc21 [Example 10, (S&R)-4-(2-(1-Methyl-1H-pyrazol-5-yl)-4-(trifluoromethyl)phenyl)-N-(pyrimidin-4-yl) chroman-7-sulfonamide] | > 10 | – |
| Cn1nccc1-c1cc(C(F)(F)F)ccc1[C@H]1CCOc2cc(S(=O)(=O)Nc3cnccn3)ccc21 [Example 12, (S&R)-4-(2-(1-Methyl-1H-pyrazol-5-yl)-4-(trifluoromethyl)phenyl)-N-(pyrazin-2-yl) chromane-7-sulfonamide] | > 10 | – |
| O=S(=O)(Nc1ncc(F)cn1)c1ccc2c(c1)OCC[C@H]2c1ccc(C(F)(F)F)cc1-c1ccc(F)nc1 [Example 37, (S&R)-4-(2-(6-Fluoropyridin-3-yl)-4-(trifluoromethyl)phenyl)-N-(5-fluoropyrimidin-2-yl) chromane-7-sulfonamide] | > 10 | – |
| O=S(=O)(Nc1ncc(F)cn1)c1ccc2c(c1)OCC[C@@H]2c1ccc(C(F)(F)F)cc1-c1ccc(F)nc1 [Example 38, (S&R)-4-(2-(6-Fluoropyridin-3-yl)-4-(trifluoromethyl)phenyl)-N-(5-fluoropyrimidin-2-yl) chromane-7-sulfonamide] | > 10 | – |
| O=S(=O)(Nc1ncc(F)cn1)c1ccc2c(c1)OCC[C@H]2c1ccc(C(F)(F)F)cc1-c1ccc(F)cc1 [Example 45, (S&R)-4-(4′-Fluoro-5-(trifluoromethyl)-[1,1′-biphenyl]-2-yl)-N-(5-fluoropyrimidin-2-yl) chromane-7-sulfonamide] | > 10 | – |
| O=S(=O)(Nc1ncc(F)cn1)c1ccc2c(c1)OCC[C@@H]2c1ccc(C(F)(F)F)cc1-c1ccc(F)cc1 [Example 46, (S&R)-4-(4′-Fluoro-5-(trifluoromethyl)-[1,1′-biphenyl]-2-yl)-N-(5-fluoropyrimidin-2-yl) chromane-7-sulfonamide] | > 10 | – |
| O=S(=O)(Nc1ccncn1)c1ccc2c(c1)OCC[C@@H]2c1ccc(C(F)(F)F)cc1-c1ccc(F)cc1 [Example 48, (S&R)-4-(4′-Fluoro-5-(trifluoromethyl)-[1,1′-biphenyl]-2-yl)-N-(pyrimidin-4-yl)chromane-7-sulfonamide] | > 10 | – |
| O=S(=O)(Nc1cccc(F)n1)c1ccc2c(c1)OCC[C@H]2c1ccc(C(F)(F)F)cc1-c1ccc(F)cc1 [Example 49, (S&R)-4-(4′-Fluoro-5-(trifluoromethyl)-[, 1′-biphenyl]-2-yl)-N-(6-fluoropyridin-2-yl) chromane-7-sulfonamide] | > 10 | – |
| O=S(=O)(Nc1cccc(F)n1)c1ccc2c(c1)OCC[C@@H]2c1ccc(C(F)(F)F)cc1-c1ccc(F)cc1 [Example 50, (S&R)-4-(4′-Fluoro-5-(trifluoromethyl)-[, 1′-biphenyl]-2-yl)-N-(6-fluoropyridin-2-yl) chromane-7-sulfonamide] | – | 38 |
| O=S(=O)(Nc1ncccn1)c1ccc2c(c1)OCC[C@H]2c1ccc(C(F)(F)F)cc1-n1ccnn1 [Example 51, (S&R)-4-(2-(1H-1,2,3-Triazol-1-yl)-4-(trifluoromethyl)phenyl)-N-(pyrimidin-2-yl)chromane-7-sulfonamide] | > 10 | – |
| O=S(=O)(Nc1ncccn1)c1ccc2c(c1)OCC[C@@H]2c1ccc(C(F)(F)F)cc1-n1ccnn1 [Example 52, (S&R)-4-(2-(1H-1,2,3-Triazol-1-yl)-4-(trifluoromethyl)phenyl)-N-(pyrimidin-2-yl)chromane-7-sulfonamide] | > 10 | – |
| O=S(=O)(Nc1ncc(F)cn1)c1ccc2c(c1)OCC[C@H]2c1ccc(C(F)(F)F)cc1-n1ccnn1 [Example 55, (S&R)-4-(2-(1H-1,2,3-Triazol-1-yl)-4-(trifluoromethyl)phenyl)-N-(5-fluoropyrimidin-2-yl) chromane-7-sulfonamide] | > 10 | – |
| O=S(=O)(Nc1ncc(F)cn1)c1ccc2c(c1)OCC[C@@H]2c1ccc(C(F)(F)F)cc1-n1ccnn1 [Example 56, (S&R)-4-(2-(1H-1,2,3-Triazol-1-yl)-4-(trifluoromethyl)phenyl)-N-(5-fluoropyrimidin-2-yl) chromane-7-sulfonamide] | > 10 | – |
| O=S(=O)(Nc1ccncn1)c1ccc2c(c1)OCC[C@H]2c1ccc(C(F)(F)F)cc1-n1ccnn1 [Example 57, (S&R)-4-(2-(1H-1,2,3-Triazol-1-yl)-4-(trifluoromethyl)phenyl)-N-(pyrimidin-4-yl)chromane-7-sulfonamide] | > 10 | – |
| O=S(=O)(Nc1ccncn1)c1ccc2c(c1)OCC[C@@H]2c1ccc(C(F)(F)F)cc1-n1ccnn1 [Example 58, (S&R)-4-(2-(1H-1,2,3-Triazol-1-yl)-4-(trifluoromethyl)phenyl)-N-(pyrimidin-4-yl)chromane-7-sulfonamide] | > 10 | – |
| O=S(=O)(Nc1cccc(F)n1)c1ccc2c(c1)OCC[C@H]2c1ccc(C(F)(F)F)cc1-n1ccnn1 [Example 59, (S&R)-4-(2-(1H-1,2,3-Triazol-1-yl)-4-(trifluoromethyl)phenyl)-N-(6-fluoropyridin-2-yl) chromane-7-sulfonamide] | > 10 | – |
